pIC50: −log10 of the molar value.
Columns and labels:
[1] = species: Rattus norvegicus; assay: Spasmolytic activity in Wistar rat ileum; format: functional
[2] = species: Rattus norvegicus; assay: Potency index, spasmolytic activity in Wistar rat ileum relative to gigantol; format: functional

| Compound | pIC50 [1] | Emax [1] [%] | Ratio IC50 [2] |
| --- | --- | --- | --- |
| COc1ccc(-c2nc3ccccc3[nH]2)c(OC)c1OC | 5.74 | 65 | 3.23 |
| COc1ccc(Cc2nccc3cc(OC)c(OC)cc23)cc1OC [PAPAVERINE] | – | 96.7 | 3.76 |
| c1ccc2[nH]c(-c3ccncc3)nc2c1 | 3.72 | 50 | 0.03 |
| CCOc1ccccc1-c1nc2ccccc2n1CC | 5.76 | 60 | 3.39 |
| Oc1ccccc1-c1nc2ccccc2[nH]1 | 5.29 | 42.4 | 1.13 |
| COc1cc(OC)c(-c2nc3ccccc3[nH]2)cc1OC | 5.40 | 90 | 1.45 |
| COc1ccc(-c2nc3ccccc3[nH]2)cc1 | 4.97 | 54.9 | 0.55 |
| Cc1ccc(COc2ccccc2-c2nc3ccccc3[nH]2)cc1 | 4.82 | 47.7 | 0.38 |
| COc1cc(-c2nc3ccccc3[nH]2)ccc1O | 5.92 | 70 | 4.9 |
| COc1ccc(-c2nc3ccccc3[nH]2)cc1OC | 5.25 | 55 | 1.04 |
| COc1ccccc1-c1nc2ccccc2[nH]1 | 5.11 | 52.8 | 0.75 |
| Clc1ccc(COc2ccccc2-c2nc3ccccc3[nH]2)cc1 | 4.23 | 38.2 | 0.09 |

Continued by rising pIC50 [1], values first:

| pIC50 [1] | Compound | Emax [1] [%] | Ratio IC50 [2] |
| --- | --- | --- | --- |
| 4.10 | O=[N+]([O-])c1ccccc1-c1nc2ccccc2[nH]1 | 11.1 | 0.07 |
| 4.52 | CN(C)c1ccc(-c2nc3ccccc3[nH]2)cc1 | 34.9 | 0.19 |
| 4.55 | c1ccc(COc2ccccc2-c2nc3ccccc3[nH]2)cc1 | 51.4 | 0.21 |
| 5.28 | Oc1ccc(-c2nc3ccccc3[nH]2)cc1 | 61.2 | 1.11 |
| 5.47 | c1ccc2[nH]c(-c3ccc4c(c3)OCO4)nc2c1 | 59 | 1.71 |
| 5.71 | CCOc1ccccc1-c1nc2ccccc2[nH]1 | 50 | 3 |
| 5.72 | CCCOc1ccccc1-c1nc2ccccc2[nH]1 | 80 | 3.06 |
